This passage reports EC50 results from article PMC9101838, “Novel CFTR Activator Cact-3 Ameliorates Ocular Surface Dysfunctions in Scopolamine-Induced Dry Eye Mice” (International Journal of Molecular Sciences, 2022).

The target of this test is T1, Cystic fibrosis transmembrane conductance regulator (CFTR) (Homo sapiens, UniProt P13569).
T1 construct: human WT-CFTR
The test can be described thus: apical membrane current in FRT cells expressing human WT-CFTR; whole-cell patch clamp in CHO-K1 cells; no change in cAMP. The test is classed as cell-based.

T1 sequence (P13569 whole entry): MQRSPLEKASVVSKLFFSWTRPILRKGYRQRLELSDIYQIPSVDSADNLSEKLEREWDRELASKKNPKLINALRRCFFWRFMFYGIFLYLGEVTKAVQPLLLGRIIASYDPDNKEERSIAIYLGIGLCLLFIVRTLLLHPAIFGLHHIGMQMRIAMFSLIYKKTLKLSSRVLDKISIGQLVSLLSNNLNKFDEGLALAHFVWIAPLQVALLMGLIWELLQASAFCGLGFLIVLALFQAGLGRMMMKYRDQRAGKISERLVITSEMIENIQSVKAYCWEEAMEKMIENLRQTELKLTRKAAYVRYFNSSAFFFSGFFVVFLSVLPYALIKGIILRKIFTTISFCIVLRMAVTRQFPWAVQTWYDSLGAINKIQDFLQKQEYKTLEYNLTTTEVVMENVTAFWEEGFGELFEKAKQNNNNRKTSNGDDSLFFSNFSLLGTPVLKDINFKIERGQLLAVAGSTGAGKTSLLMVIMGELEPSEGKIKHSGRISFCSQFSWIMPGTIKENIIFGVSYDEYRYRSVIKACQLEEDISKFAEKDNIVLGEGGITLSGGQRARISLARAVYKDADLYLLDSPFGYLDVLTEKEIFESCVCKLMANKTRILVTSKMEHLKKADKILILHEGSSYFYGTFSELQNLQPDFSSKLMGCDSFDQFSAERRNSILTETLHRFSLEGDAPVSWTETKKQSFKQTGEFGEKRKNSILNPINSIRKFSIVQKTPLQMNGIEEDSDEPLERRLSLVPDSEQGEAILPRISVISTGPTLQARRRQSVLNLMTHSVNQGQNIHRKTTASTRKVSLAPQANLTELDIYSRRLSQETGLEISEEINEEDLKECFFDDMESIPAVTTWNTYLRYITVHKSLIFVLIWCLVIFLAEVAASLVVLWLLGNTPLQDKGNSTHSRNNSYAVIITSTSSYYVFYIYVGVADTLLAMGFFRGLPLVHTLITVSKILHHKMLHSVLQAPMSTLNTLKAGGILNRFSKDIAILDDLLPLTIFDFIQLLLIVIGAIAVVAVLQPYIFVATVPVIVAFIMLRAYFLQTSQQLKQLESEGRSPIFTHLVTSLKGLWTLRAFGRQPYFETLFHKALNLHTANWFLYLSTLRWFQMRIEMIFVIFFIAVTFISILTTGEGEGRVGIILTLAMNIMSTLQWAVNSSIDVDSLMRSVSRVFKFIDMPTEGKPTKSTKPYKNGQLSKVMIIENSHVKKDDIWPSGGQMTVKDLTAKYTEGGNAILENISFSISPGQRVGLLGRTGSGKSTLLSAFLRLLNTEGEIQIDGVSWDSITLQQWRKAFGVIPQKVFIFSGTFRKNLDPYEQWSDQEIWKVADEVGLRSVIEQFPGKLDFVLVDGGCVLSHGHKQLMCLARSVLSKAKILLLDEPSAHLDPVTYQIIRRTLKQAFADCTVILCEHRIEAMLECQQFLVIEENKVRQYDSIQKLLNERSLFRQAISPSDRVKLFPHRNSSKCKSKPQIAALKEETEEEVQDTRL

In turn, `CCOc1ccc(NC(=O)c2cc3nccc(-c4ccc(OC)c(OC)c4)n3n2)cc1` [Cact-3, 7-(3,4-dimethoxyphenyl)-N-(4-ethoxyphenyl)pyrazolo [1,5-α]pyrimidine-2-carboxamide] registered an EC50 of 0.255 µM.
